From US10624897B2, “Chlorobenzene substituted azaaryl compounds” (TAIPEI MEDICAL UNIVERSITY, priority 2015, dated 2020)

How the values were obtained:
Assay in all cases: Kinase binding assay (Kd)
ACVR1B = molecular target: T1, ACVR1B (Homo sapiens, UniProt P36896)
T1 construct: made in house; host or cells: E. coli BL21-derived host (T7 phage) or HEK-293
Procedure: (§1) Kinase assays. For most assays, kinase-tagged T7 phage strains were prepared in an E. coli host derived from the BL21 strain. E. coli were grown to log-phase and infected with T7 phage and incubated with shaking at 32° C. until lysis. The lysates were centrifuged and filtered to remove cell debris. The remaining kinases were produced in HEK-293 cells and subsequently tagged with DNA for qPCR detection. […] The liganded beads were blocked with excess biotin and washed with blocking buffer (SeaBlock (Pierce), 1% BSA, 0.05% Tween 20, 1 mM DTT) to remove unbound ligand and to reduce non-specific binding. […] All reactions were performed in polystyrene 96-well plates in a final volume of 0.135 ml. […] The kinase concentration in the eluates was measured by qPCR.
(§2) An 11-point 3-fold serial dilution of each test compound was prepared in 100% DMSO at 100× final test concentration and subsequently diluted to 1× in the assay (final DMSO concentration=1%). Most Kds were determined using a compound top concentration=30,000 nM.
(§3) Binding constants (Kds) were calculated with a standard dose-response curve using the Hill equation: […]
(§4) The Hill Slope was set to −1. Curves were fitted using a non-linear least square fit with the Levenberg-Marquardt algorithm.

ADCK3 = molecular target: T2, ADCK3 (Homo sapiens, UniProt Q8NI60)
T2 construct: made in house; host or cells: E. coli BL21-derived host (T7 phage) or HEK-293
Procedure: as §1, §2, §3, §4

AKT2 = molecular target: T3, AKT2 (Homo sapiens, UniProt P31751)
T3 construct: made in house; host or cells: E. coli BL21-derived host (T7 phage) or HEK-293
Procedure: as §1, §2, §3, §4

BRAF = molecular target: T4, BRAF (Homo sapiens, UniProt P15056)
T4 construct: made in house; host or cells: E. coli BL21-derived host (T7 phage) or HEK-293
Procedure: as §1, §2, §3, §4

CDK3 = molecular target: T5, CDK3 (Homo sapiens, UniProt Q00526)
T5 construct: made in house; host or cells: E. coli BL21-derived host (T7 phage) or HEK-293
Procedure: as §1, §2, §3, §4

CSNK1D = molecular target: T6, CSNK1D (Homo sapiens, UniProt P48730)
T6 construct: made in house; host or cells: E. coli BL21-derived host (T7 phage) or HEK-293
Procedure: as §1, §2, §3, §4

EGFR = molecular target: T7, EGFR (Homo sapiens, UniProt P00533)
T7 construct: made in house; host or cells: E. coli BL21-derived host (T7 phage) or HEK-293
Procedure: as §1, §2, §3, §4

ERBB4 = molecular target: T8, ERBB4 (Homo sapiens, UniProt Q15303)
T8 construct: made in house; host or cells: E. coli BL21-derived host (T7 phage) for most kinases, HEK-293 for the rest
Procedure: as §1, §2, §3, §4

ERK1 = molecular target: T9, ERK1 (Homo sapiens, UniProt P27361)
T9 construct: made in house; host or cells: E. coli BL21-derived host (T7 phage) for most kinases, HEK-293 for the rest
Procedure: as §1, §2, §3, §4

FAK = molecular target: T10, FAK (Homo sapiens, UniProt Q05397)
T10 construct: made in house; host or cells: E. coli BL21-derived host (T7 phage) for most kinases, HEK-293 for the rest
Procedure: as §1, §2, §3, §4

FGFR1 = molecular target: T11, FGFR1 (Homo sapiens, UniProt P11362)
T11 construct: made in house; host or cells: E. coli BL21-derived host (T7 phage) or HEK-293
Procedure: as §1, §2, §3, §4

FGFR2 = molecular target: T12, FGFR2 (Homo sapiens, UniProt P21802)
T12 construct: made in house; host or cells: E. coli BL21-derived host (T7 phage) or HEK-293
Procedure: as §1, §2, §3, §4

FGFR4 = molecular target: T13, FGFR4 (Homo sapiens, UniProt P22455)
T13 construct: made in house; host or cells: E. coli BL21-derived host (T7 phage) or HEK-293
Procedure: as §1, §2, §3, §4

GSK3B = molecular target: T14, GSK3B (Homo sapiens, UniProt P49841)
T14 construct: made in house; host or cells: E. coli BL21-derived host (T7 phage) for most kinases, HEK-293 for the rest
Procedure: as §1, §2, §3, §4

IKK-alpha = molecular target: T15, IKK-alpha (Homo sapiens, UniProt O15111)
T15 construct: made in house; host or cells: E. coli BL21-derived host (T7 phage) for most kinases, HEK-293 for the rest
Procedure: as §1, §2, §3, §4

IKK-beta = molecular target: T16, IKK-beta (Homo sapiens, UniProt O14920)
T16 construct: made in house; host or cells: E. coli BL21-derived host (T7 phage) for most kinases, HEK-293 for the rest
Procedure: as §1, §2, §3, §4

INSR = molecular target: T17, INSR (Homo sapiens, UniProt P06213)
T17 construct: made in house; host or cells: E. coli BL21-derived host (T7 phage) for most kinases, HEK-293 for the rest
Procedure: as §1, §2, §3, §4

LKB1 = molecular target: T18, LKB1 (Homo sapiens, UniProt Q15831)
T18 construct: made in house; host or cells: E. coli BL21-derived host (T7 phage) for most kinases, HEK-293 for the rest
Procedure: as §1, §2, §3, §4

MAPKAPK2 = molecular target: T19, MAPKAPK2 (Homo sapiens, UniProt P49137)
T19 construct: made in house; host or cells: E. coli BL21-derived host (T7 phage) for most kinases, HEK-293 for the rest
Procedure: as §1, §2, §3, §4

MEK1 = molecular target: T20, MEK1 (Homo sapiens, UniProt Q02750)
T20 construct: made in house; host or cells: E. coli BL21-derived host (T7 phage) for most kinases, HEK-293 for the rest
Procedure: as §1, §2, §3, §4

MKNK1 = molecular target: T21, MKNK1 (Homo sapiens, UniProt Q9BUB5)
T21 construct: made in house; host or cells: E. coli BL21-derived host (T7 phage) for most kinases, HEK-293 for the rest
Procedure: as §1, §2, §3, §4

MLK1 = molecular target: T22, MLK1 (Homo sapiens, UniProt P80192)
T22 construct: made in house; host or cells: E. coli BL21-derived host (T7 phage) for most kinases, HEK-293 for the rest
Procedure: as §1, §2, §3, §4

PDGFRA = molecular target: T23, PDGFRA (Homo sapiens, UniProt P16234)
T23 construct: made in house; host or cells: E. coli BL21-derived host (T7 phage) for most kinases, HEK-293 for the rest
Procedure: as §1, §2, §3, §4

PDGFRB = molecular target: T24, PDGFRB (Homo sapiens, UniProt P09619)
T24 construct: made in house; host or cells: E. coli BL21-derived host (T7 phage) or HEK-293
Procedure: as §1, §2, §3, §4

PIK3CA = molecular target: T25, PIK3CA (Homo sapiens, UniProt P42336)
T25 construct: made in house; host or cells: E. coli BL21-derived host (T7 phage) for most kinases, HEK-293 for the rest
Procedure: as §1, §2, §3, §4

PIK3CG = molecular target: T26, PIK3CG (Homo sapiens, UniProt P48736)
T26 construct: made in house; host or cells: E. coli BL21-derived host (T7 phage) for most kinases, HEK-293 for the rest
Procedure: as §1, §2, §3, §4

PIM2 = molecular target: T27, PIM2 (Homo sapiens, UniProt Q9P1W9)
T27 construct: made in house; host or cells: E. coli BL21-derived host (T7 phage) for most kinases, HEK-293 for the rest
Procedure: as §1, §2, §3, §4

PLK1 = molecular target: T28, PLK1 (Homo sapiens, UniProt P53350)
T28 construct: made in house; host or cells: E. coli BL21-derived host (T7 phage) or HEK-293
Procedure: as §1, §2, §3, §4

PLK3 = molecular target: T29, PLK3 (Homo sapiens, UniProt Q9H4B4)
T29 construct: made in house; host or cells: E. coli BL21-derived host (T7 phage) or HEK-293
Procedure: as §1, §2, §3, §4

RAF1 = molecular target: T30, RAF1 (Homo sapiens, UniProt P04049)
T30 construct: made in house; host or cells: E. coli BL21-derived host (T7 phage) or HEK-293
Procedure: as §1, §2, §3, §4

ROCK2 = molecular target: T31, ROCK2 (Homo sapiens, UniProt O75116)
T31 construct: made in house; host or cells: E. coli BL21-derived host (T7 phage) or HEK-293
Procedure: as §1, §2, §3, §4

SRPK3 = molecular target: T32, SRPK3 (Homo sapiens, UniProt Q9UPE1)
T32 construct: made in house; host or cells: E. coli BL21-derived host (T7 phage) or HEK-293
Procedure: as §1, §2, §3, §4

TSSK1B = molecular target: T33, TSSK1B (Homo sapiens, UniProt Q9BXA7)
T33 construct: made in house; host or cells: E. coli BL21-derived host (T7 phage) or HEK-293
Procedure: as §1, §2, §3, §4

TYK2 = molecular target: T34, TYK2 (Homo sapiens, UniProt P29597)
T34 construct: made in house; host or cells: E. coli BL21-derived host (T7 phage) or HEK-293
Procedure: as §1, §2, §3, §4

VEGFR2 = molecular target: T35, VEGFR2 (Homo sapiens, UniProt P35968)
T35 construct: made in house; host or cells: E. coli BL21-derived host (T7 phage) or HEK-293
Procedure: as §1, §2, §3, §4

YANK3 = molecular target: T36, YANK3 (Homo sapiens, UniProt Q86UX6)
T36 construct: made in house; host or cells: E. coli BL21-derived host (T7 phage) or HEK-293
Procedure: as §1, §2, §3, §4

p38-alpha = molecular target: T37, p38-alpha (Homo sapiens, UniProt Q16539)
T37 construct: made in house; host or cells: E. coli BL21-derived host (T7 phage) for most kinases, HEK-293 for the rest
Procedure: as §1, §2, §3, §4

T25 sequence (P42336 whole entry): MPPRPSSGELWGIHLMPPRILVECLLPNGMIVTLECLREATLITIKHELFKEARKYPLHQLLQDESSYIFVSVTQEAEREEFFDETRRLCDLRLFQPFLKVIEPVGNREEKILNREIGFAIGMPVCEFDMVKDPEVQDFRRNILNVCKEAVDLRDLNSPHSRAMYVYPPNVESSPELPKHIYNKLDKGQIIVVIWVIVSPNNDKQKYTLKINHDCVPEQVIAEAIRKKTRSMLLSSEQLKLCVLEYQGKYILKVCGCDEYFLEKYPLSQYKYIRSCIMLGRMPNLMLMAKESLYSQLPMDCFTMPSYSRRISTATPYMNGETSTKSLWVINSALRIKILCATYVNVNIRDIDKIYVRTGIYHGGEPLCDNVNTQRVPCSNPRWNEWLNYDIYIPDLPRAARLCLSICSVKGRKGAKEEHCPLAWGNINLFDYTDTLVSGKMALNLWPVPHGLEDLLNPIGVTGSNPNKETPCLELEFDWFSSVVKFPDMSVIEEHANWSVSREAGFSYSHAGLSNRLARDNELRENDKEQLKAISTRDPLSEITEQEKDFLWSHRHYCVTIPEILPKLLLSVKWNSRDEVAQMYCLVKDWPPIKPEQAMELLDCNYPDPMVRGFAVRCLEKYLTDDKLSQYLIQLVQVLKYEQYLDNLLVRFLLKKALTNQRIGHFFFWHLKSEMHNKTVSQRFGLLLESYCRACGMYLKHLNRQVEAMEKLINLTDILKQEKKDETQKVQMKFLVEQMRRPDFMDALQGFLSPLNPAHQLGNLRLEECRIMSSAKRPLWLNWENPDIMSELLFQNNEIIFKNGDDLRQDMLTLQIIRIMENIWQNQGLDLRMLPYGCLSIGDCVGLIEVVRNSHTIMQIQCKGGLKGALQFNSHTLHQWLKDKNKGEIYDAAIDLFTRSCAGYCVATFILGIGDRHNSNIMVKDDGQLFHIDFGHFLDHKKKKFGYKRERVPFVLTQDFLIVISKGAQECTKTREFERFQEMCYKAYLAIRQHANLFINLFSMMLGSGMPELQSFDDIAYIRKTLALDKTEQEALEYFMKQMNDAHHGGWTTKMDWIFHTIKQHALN
T27 sequence (Q9P1W9 whole entry): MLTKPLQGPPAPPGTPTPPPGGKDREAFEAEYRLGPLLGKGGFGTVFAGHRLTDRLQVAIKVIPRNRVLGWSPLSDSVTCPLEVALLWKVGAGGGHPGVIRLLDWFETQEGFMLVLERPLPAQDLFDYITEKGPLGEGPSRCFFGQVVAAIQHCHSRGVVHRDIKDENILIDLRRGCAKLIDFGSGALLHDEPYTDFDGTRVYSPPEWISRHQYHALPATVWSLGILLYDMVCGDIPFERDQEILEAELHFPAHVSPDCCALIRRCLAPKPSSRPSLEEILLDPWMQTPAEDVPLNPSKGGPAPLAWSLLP
T31 sequence (O75116 whole entry): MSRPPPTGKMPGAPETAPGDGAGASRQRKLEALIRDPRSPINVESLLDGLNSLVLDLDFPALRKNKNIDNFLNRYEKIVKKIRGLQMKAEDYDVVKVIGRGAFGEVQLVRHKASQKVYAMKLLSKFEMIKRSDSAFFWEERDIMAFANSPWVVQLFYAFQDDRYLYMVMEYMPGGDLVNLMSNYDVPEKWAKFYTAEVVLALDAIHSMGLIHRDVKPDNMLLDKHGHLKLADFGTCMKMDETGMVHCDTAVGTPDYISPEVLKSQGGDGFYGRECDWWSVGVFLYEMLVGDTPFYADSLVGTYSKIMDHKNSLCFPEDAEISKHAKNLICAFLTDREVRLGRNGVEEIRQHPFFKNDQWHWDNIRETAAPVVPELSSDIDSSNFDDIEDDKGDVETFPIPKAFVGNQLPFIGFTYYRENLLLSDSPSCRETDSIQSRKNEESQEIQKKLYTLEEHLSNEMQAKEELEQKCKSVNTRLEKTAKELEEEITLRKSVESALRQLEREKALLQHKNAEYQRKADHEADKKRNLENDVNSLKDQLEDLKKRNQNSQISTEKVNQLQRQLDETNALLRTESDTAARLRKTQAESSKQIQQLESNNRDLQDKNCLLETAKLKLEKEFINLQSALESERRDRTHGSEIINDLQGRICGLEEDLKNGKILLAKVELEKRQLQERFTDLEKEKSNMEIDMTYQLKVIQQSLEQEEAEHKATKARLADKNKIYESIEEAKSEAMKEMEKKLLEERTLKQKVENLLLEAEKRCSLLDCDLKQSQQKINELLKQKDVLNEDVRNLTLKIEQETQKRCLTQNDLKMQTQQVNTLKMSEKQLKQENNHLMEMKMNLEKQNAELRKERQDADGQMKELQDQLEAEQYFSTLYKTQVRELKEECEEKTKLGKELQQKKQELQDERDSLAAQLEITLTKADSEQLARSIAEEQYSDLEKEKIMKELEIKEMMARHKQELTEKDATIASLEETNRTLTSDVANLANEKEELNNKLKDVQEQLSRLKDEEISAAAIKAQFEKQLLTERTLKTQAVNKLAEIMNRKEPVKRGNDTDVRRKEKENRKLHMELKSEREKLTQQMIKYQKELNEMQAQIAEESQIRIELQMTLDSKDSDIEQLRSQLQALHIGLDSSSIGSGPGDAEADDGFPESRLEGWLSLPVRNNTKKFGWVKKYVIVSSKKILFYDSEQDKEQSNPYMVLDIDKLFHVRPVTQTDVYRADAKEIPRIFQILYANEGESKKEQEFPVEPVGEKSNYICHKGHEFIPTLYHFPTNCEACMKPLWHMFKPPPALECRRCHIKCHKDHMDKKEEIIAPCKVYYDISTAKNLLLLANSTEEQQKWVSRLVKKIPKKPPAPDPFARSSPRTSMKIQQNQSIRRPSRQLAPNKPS
T9 sequence (P27361 whole entry): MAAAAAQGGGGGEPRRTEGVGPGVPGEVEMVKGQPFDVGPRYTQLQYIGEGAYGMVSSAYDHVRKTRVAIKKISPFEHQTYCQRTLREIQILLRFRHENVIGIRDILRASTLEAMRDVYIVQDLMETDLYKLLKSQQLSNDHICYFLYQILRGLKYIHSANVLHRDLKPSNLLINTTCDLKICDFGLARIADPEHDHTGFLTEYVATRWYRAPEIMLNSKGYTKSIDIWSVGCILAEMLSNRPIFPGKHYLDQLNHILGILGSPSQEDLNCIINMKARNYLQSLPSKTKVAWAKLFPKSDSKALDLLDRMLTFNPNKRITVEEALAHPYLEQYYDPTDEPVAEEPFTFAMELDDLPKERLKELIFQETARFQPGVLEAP
T4 sequence (P15056 whole entry): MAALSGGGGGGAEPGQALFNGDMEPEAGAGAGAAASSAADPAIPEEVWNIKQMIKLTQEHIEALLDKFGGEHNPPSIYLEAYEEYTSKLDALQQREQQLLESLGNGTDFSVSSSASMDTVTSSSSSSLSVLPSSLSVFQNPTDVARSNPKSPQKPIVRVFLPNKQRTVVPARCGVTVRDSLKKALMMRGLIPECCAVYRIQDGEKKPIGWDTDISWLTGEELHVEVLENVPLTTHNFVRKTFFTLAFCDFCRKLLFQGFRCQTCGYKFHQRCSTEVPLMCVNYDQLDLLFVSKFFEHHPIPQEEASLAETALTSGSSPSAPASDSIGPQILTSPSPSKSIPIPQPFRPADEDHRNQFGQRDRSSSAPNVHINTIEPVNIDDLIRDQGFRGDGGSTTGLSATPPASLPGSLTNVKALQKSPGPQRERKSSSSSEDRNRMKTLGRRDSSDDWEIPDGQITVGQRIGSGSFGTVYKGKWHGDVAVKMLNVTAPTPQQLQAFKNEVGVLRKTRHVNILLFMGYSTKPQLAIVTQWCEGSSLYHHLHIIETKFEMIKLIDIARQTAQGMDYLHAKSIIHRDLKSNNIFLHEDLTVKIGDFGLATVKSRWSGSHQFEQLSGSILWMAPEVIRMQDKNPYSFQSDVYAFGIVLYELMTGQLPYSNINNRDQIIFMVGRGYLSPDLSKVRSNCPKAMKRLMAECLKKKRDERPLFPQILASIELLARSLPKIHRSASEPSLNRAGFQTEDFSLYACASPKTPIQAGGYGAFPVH
T26 sequence (P48736 whole entry): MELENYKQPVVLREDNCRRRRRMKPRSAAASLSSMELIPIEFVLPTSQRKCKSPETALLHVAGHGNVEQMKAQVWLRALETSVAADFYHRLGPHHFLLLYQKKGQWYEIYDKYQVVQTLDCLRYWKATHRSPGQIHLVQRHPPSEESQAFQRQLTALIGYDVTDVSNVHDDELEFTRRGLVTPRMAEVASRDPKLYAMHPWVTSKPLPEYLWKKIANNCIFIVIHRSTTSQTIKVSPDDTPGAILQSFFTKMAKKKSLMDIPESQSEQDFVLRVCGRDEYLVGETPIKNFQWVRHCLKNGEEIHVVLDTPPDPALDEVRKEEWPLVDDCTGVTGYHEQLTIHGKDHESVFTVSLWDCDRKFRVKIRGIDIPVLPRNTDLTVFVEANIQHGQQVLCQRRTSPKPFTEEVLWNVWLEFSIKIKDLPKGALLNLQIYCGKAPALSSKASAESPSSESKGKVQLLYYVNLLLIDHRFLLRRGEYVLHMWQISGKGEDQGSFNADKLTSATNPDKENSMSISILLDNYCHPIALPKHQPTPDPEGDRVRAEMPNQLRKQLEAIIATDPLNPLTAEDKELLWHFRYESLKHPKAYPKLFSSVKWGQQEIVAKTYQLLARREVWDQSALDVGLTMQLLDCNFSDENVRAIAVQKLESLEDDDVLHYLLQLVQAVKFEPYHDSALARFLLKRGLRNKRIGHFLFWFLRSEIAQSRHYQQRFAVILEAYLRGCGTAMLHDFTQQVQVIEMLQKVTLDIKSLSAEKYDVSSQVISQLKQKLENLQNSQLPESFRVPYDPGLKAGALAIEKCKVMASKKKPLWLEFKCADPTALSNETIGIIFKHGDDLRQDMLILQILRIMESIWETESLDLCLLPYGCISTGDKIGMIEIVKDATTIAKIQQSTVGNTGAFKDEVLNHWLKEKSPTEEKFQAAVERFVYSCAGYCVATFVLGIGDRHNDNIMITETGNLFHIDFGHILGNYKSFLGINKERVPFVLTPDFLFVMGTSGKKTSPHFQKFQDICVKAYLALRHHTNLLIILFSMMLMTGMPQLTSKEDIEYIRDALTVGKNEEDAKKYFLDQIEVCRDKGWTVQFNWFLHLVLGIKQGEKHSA

Molecule CCN1CCN(c2ccc(Nc3ncnc(N(C)C(=O)Nc4c(Cl)c(OC)c(Cl)c(OC)c4Cl)n3)cc2)CC1 [MPT0L145, 1-(4-((4-(4-ethylpiperazin-1-yl)phenyl)amino)-1,3,5-triazin-2-yl)-1-methyl-3-(2,4,6-trichloro-3,5-dimethoxyphenyl)urea] has a Kd (ACVR1B) of over 10 µM, a Kd (ADCK3) of over 10 µM and a Kd (AKT2) of over 10 µM. For the same molecule, the Kd (BRAF) was over 10 µM, the Kd (CDK3) was over 10 µM and the Kd (CSNK1D) was over 10 µM. For the same molecule, the Kd (EGFR) was over 10 µM, the Kd (ERBB4) was over 10 µM and the Kd (ERK1) was over 10 µM. The Kd (FAK) was over 10 µM, the Kd (FGFR1) was 0.13 µM and the Kd (FGFR2) was 0.67 µM. For the same molecule, the Kd (FGFR4) was 7.5 µM, the Kd (GSK3B) was over 10 µM and the Kd (IKK-alpha) was over 10 µM. For the same molecule, the Kd (IKK-beta) was over 10 µM, the Kd (INSR) was over 10 µM and the Kd (LKB1) was over 10 µM. For the same molecule, the Kd (MAPKAPK2) was over 10 µM, the Kd (MEK1) was over 10 µM and the Kd (MKNK1) was over 10 µM. It also gave a Kd (MLK1) of over 10 µM, a Kd (PDGFRA) of over 10 µM and a Kd (PDGFRB) of 0.68 µM. The Kd (PIK3CA) was over 10 µM, the Kd (PIK3CG) was over 10 µM and the Kd (PIM2) was over 10 µM. For the same molecule, the Kd (PLK1) was over 10 µM, the Kd (PLK3) was over 10 µM and the Kd (RAF1) was over 10 µM. For the same molecule, the Kd (ROCK2) was over 10 µM, the Kd (SRPK3) was over 10 µM and the Kd (TSSK1B) was over 10 µM. The Kd (TYK2) was 0.66 µM, the Kd (VEGFR2) was 3.1 µM and the Kd (YANK3) was over 10 µM. The Kd (p38-alpha) was over 10 µM.
